Experimental data from ChEMBL document CHEMBL5357082, “Identification and Optimization of Small Molecule Pyrazolopyrimidine TLR7 Agonists for Applications in Immuno-oncology” (ACS Med Chem Lett, 2024).
Calls of active or inactive are those of the source. The rule behind the calls is not given here.

What was measured:
Toll-like receptor 7 [1] = target: T1, Toll-like receptor 7 (Mus musculus, UniProt P58681); test: (§1) Agonist activity at mouse TLR7
T1 sequence (P58681 whole entry): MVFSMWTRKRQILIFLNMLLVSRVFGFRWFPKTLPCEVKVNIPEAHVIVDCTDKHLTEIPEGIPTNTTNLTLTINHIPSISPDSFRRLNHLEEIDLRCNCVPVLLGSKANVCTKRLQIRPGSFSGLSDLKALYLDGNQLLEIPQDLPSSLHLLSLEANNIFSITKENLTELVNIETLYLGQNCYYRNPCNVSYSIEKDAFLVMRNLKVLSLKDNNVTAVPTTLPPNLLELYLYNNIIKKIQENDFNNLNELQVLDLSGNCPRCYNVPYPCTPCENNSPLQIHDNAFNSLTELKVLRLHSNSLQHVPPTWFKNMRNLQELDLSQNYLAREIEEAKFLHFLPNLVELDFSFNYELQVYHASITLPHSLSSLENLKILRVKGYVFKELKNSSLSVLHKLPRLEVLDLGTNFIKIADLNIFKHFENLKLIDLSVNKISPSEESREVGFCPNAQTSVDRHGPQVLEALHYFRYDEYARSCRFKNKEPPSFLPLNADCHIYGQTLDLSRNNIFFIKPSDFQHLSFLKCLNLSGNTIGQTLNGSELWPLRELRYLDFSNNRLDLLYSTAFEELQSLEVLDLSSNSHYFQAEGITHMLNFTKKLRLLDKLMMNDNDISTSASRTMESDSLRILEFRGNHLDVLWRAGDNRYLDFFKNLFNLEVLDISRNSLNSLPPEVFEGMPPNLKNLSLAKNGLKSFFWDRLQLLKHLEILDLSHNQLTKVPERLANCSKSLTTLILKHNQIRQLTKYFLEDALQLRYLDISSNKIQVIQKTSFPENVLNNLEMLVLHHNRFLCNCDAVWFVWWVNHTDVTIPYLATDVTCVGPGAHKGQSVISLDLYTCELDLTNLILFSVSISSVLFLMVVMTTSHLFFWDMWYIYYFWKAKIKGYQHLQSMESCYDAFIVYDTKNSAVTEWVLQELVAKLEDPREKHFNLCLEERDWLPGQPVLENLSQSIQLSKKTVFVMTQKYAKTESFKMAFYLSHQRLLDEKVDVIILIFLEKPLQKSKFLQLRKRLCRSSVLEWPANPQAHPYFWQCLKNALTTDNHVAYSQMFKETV

Cytochrome P450 3A4 [2] = target: T2, Cytochrome P450 3A4 (Homo sapiens, UniProt P08684); test: Inhibition of CYP3A4 (unknown origin) using BFC as substrate; assay type: ADME
Cytochrome P450 2D6 = Cytochrome P450 2D6 (Homo sapiens, UniProt P10635); test: Inhibition of CYP2D6 (unknown origin); assay type: ADME
[3] = target: Voltage-gated inwardly rectifying potassium channel KCNH2 (Homo sapiens, UniProt Q12809); test: Inhibition of hERG; assay type: toxicity
[4] = Cytotoxicity against PHA-activated T-cells (unknown origin) assessed as inhibition of IL-2 induced cell proliferation measured after 72 hrs by MTS assay; assay type: toxicity, cell-based
[5] = Metabolic stability in mouse liver microsomes assessed as compound remaining at 0.5 uM incubated for 10 mins in presence of NADPH by UV absorbance based assay; assay type: ADME, Microsome; conditions: read-out: Stability
Cytochrome P450 3A4 [6] = target: T2, Cytochrome P450 3A4; test: Inhibition of CYP3A4 (unknown origin) using BFC as substrate preincubated with compound followed by substrate addition at 30 mins; assay type: ADME
Cytochrome P450 2C19 = Cytochrome P450 2C19 (Homo sapiens, UniProt P33261); test: Inhibition of CYP2C19 (unknown origin); assay type: ADME
[7] = Permeability of compound at pH 7.4 by PAMPA; assay type: ADME; conditions: read-out: permeability
Cytochrome P450 2C8 = target: T3, Cytochrome P450 2C8 (Homo sapiens, UniProt P10632); test: Inhibition of CYP2C8 (unknown origin); assay type: ADME
T3 sequence (P10632 whole entry): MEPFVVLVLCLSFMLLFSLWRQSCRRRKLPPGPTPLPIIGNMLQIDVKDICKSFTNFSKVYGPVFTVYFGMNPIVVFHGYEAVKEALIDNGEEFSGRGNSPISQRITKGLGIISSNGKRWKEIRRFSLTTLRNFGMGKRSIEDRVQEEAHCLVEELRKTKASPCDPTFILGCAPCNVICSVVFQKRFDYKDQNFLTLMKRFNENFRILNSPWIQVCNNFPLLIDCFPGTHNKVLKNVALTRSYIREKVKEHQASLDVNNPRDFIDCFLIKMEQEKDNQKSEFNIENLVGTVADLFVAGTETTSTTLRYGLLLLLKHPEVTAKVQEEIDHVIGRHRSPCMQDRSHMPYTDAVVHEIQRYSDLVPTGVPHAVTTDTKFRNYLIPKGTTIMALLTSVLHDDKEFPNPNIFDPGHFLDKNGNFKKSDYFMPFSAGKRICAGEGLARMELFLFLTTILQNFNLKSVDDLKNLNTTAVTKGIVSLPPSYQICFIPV

Cytochrome P450 3A4 [8] = target: T2, Cytochrome P450 3A4; test: Inhibition of CYP3A4 (unknown origin) using BFC as substrate preincubated with compound followed by substrate addition at 5 mins; assay type: ADME
[9] = Metabolic stability in human liver microsomes assessed as compound remaining at 0.5 uM incubated for 10 mins in presence of NADPH by UV absorbance based assay; assay type: ADME, Microsome; conditions: read-out: Stability
Cytochrome P450 2C9 = Cytochrome P450 2C9 (Homo sapiens, UniProt P11712); test: Inhibition of CYP2C9 (unknown origin); assay type: ADME
Cytochrome P450 1A2 = target: T4, Cytochrome P450 1A2 (Homo sapiens, UniProt P05177); test: Inhibition of CYP1A2 (unknown origin); assay type: ADME
T4 sequence (P05177 whole entry): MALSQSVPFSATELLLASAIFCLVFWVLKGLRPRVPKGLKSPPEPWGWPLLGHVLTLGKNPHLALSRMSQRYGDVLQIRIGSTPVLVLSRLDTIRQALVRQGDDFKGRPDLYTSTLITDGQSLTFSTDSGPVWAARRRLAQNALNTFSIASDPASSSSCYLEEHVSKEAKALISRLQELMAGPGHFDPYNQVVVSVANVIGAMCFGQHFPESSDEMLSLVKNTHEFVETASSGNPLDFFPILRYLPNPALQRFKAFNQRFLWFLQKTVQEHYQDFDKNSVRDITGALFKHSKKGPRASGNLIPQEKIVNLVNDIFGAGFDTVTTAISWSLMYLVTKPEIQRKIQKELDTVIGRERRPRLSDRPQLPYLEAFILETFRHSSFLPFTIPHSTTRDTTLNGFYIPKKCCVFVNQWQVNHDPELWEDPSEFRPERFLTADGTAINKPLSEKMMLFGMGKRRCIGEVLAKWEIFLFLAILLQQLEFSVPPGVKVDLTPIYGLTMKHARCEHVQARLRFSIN

Toll-like receptor 7 [10] = target: T5, Toll-like receptor 7 (Homo sapiens, UniProt Q9NYK1); test: Agonist activity at human TLR7 in HEK-Blue hTLR7 cells harboring SEAP reporter transgene incubated for 18 hrs by quanti-blue reagent based assay; assay type: cell-based
T5 sequence (Q9NYK1 whole entry): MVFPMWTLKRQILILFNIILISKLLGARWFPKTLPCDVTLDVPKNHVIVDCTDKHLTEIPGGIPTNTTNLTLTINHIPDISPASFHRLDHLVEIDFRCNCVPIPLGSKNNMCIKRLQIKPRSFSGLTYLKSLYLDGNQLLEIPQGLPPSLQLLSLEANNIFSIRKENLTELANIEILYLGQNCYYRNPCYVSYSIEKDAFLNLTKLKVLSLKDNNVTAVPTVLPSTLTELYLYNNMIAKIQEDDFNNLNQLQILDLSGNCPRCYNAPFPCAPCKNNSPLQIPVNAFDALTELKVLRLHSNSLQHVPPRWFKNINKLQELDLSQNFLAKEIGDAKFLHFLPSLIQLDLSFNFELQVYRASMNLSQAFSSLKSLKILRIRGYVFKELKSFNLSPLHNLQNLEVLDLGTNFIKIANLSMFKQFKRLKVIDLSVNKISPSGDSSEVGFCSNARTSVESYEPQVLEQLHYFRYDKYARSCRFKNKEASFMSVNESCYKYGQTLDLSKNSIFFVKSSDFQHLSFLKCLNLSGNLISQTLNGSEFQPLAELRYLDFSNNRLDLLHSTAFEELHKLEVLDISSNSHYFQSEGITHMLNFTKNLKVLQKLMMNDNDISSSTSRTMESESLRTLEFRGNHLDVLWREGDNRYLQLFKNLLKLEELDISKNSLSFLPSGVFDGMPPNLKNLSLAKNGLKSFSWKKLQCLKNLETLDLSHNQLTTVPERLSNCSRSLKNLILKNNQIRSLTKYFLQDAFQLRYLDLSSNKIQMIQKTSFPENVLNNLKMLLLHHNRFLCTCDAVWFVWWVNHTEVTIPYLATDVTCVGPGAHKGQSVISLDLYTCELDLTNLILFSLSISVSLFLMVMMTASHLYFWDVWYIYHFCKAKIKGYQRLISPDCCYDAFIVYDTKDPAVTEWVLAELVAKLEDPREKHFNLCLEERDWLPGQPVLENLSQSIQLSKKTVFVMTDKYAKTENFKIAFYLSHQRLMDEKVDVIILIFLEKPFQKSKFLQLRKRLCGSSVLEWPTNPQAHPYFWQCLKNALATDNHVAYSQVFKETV

[11] = target: T6, Toll-like receptor 7 (Mus musculus) (UniProt P58681); test: as §1
T6 sequence (whole entry): T1 sequence (P58681 whole entry)

Cytochrome P450 2D6, sequence (P10635 whole entry): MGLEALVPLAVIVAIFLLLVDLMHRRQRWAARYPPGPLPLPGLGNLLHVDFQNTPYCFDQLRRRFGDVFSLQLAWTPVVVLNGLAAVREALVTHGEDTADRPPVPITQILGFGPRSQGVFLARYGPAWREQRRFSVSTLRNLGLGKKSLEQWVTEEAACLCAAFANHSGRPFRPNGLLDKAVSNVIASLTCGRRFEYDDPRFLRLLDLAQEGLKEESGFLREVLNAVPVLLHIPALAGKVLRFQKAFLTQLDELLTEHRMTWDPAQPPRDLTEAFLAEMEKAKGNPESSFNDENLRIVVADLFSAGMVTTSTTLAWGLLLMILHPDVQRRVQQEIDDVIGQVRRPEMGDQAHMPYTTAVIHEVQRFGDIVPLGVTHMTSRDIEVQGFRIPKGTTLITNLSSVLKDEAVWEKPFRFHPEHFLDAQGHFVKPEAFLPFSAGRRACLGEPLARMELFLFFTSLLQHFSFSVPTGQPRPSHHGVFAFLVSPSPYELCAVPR
Cytochrome P450 2C19, sequence (P33261 whole entry): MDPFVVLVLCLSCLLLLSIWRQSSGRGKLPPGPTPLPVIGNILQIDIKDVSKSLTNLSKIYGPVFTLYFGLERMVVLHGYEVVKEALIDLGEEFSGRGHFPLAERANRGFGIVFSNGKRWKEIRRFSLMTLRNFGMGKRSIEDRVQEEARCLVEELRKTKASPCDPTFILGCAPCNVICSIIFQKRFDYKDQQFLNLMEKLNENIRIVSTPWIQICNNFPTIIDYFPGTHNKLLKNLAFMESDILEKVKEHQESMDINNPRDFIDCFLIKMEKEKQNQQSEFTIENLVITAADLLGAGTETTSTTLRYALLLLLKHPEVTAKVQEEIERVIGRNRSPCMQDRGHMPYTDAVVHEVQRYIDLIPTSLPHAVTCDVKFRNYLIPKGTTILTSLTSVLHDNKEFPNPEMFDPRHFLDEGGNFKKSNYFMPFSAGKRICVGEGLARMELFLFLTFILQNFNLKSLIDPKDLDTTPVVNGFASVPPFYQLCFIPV
Voltage-gated inwardly rectifying potassium channel KCNH2, sequence (Q12809 whole entry): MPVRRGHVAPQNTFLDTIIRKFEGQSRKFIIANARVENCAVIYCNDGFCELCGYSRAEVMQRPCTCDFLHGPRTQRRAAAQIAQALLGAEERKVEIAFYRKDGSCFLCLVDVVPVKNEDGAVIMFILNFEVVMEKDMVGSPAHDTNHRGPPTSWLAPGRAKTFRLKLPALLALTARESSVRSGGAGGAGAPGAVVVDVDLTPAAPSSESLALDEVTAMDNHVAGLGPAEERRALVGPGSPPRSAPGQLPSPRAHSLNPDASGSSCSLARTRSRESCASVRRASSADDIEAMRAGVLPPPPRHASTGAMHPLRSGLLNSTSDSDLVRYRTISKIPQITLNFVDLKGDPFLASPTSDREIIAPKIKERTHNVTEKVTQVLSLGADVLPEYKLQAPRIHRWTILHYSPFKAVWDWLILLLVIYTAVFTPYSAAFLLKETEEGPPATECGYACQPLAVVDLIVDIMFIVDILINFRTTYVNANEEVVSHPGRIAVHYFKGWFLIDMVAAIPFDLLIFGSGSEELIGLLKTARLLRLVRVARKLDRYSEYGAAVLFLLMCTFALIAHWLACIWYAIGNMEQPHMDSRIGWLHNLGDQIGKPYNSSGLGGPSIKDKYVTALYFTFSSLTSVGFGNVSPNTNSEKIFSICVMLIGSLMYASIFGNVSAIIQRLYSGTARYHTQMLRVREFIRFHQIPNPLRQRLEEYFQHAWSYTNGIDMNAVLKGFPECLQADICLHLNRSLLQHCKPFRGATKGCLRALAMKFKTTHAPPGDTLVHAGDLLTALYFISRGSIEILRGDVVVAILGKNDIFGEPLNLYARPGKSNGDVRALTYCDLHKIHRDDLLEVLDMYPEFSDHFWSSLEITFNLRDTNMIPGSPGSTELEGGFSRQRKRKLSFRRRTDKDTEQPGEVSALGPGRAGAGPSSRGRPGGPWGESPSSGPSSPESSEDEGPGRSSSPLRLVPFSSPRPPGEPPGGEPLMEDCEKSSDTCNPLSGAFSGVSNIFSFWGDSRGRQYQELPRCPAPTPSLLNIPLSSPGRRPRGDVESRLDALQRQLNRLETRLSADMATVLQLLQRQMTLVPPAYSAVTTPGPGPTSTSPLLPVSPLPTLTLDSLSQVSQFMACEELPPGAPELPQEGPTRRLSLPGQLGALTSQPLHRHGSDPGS
Cytochrome P450 2C9, sequence (P11712 whole entry): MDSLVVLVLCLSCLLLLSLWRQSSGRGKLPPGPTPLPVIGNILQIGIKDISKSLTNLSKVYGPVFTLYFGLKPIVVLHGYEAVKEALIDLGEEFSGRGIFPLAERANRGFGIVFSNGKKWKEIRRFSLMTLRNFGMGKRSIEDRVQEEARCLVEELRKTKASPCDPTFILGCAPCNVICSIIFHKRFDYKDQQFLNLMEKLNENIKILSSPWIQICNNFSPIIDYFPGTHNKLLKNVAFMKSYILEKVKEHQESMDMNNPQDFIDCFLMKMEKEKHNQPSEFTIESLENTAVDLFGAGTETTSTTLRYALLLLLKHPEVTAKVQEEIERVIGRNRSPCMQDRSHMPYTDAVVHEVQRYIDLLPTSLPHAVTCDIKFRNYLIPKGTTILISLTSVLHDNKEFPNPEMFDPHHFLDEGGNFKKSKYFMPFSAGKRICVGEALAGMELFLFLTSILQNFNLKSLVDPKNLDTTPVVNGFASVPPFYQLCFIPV
T2 sequence (P08684 whole entry): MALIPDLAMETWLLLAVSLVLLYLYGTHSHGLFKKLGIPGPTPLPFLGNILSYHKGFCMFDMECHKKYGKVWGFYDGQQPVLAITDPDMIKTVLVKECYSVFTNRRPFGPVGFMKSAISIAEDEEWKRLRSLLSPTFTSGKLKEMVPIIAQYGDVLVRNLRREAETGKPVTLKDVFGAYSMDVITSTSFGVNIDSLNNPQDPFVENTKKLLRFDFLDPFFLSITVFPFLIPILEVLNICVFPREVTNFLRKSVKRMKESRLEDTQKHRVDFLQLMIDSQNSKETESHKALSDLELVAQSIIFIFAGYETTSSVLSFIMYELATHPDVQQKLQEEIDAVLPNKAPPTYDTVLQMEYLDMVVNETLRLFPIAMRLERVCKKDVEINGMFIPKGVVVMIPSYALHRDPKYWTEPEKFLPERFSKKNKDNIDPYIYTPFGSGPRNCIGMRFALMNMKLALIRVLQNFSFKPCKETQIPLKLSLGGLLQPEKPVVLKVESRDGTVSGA

SMILES	EC50 (Toll-like receptor 7 [1]) [µM]	IC50 (Cytochrome P450 3A4 [2]) [µM]	IC50 (Cytochrome P450 2D6) [µM]	remaining at 10 min, 0.5 µM [5] [%]	IC50 (Cytochrome P450 3A4 [6]) [µM]	IC50 (Cytochrome P450 2C19) [µM]	Papp [7] [×10⁻⁶ cm/s]	IC50 (Cytochrome P450 2C8) [µM]	IC50 (Cytochrome P450 3A4 [8]) [µM]	remaining at 10 min, 0.5 µM [9] [%]	IC50 (Cytochrome P450 2C9) [µM]	IC50 (Cytochrome P450 1A2) [µM]	EC50 (Toll-like receptor 7 [10]) [µM]	Activity [11]	IC50 [3] [µM]	IC50 at 72 h [4] [µM]
CCC[C@@H](CCO)Nc1nc(N)nc2cnn(Cc3ncc(C4CCN(C)CC4)cc3OC)c12	0.076	> 20	> 20	76	> 20	> 20	6.6	> 20	> 20	78	> 20	> 20	–	–	43	> 25
CCC[C@@H](CCO)Nc1nc(N)nc2cnn(Cc3ncc(C4CCNCC4)cc3OC)c12	0.512	> 20	> 20	85	> 20	> 20	0.9	> 20	> 20	84	> 20	> 20	0.163	–	> 50	> 25
CCC[C@@H](CCO)Nc1nc(N)nc2cnn(Cc3ncc(C4CCN(C(C)C)CC4)cc3OC)c12	0.041	> 20	> 20	78	> 20	> 20	93	> 20	> 20	80	> 20	> 20	0.018	–	> 50	> 25
CCC[C@@H](CCO)Nc1nc(N)nc2cnn(Cc3ncc(C4CCN(C5CCNCC5)CC4)cc3OC)c12	–	> 20	> 20	100	> 20	> 20	–	> 20	> 20	100	> 20	> 20	–	inactive	32.6	> 25

More lines, main results first:

EC50 (Toll-like receptor 7 [1]) [µM]	IC50 (Cytochrome P450 3A4 [2]) [µM]	IC50 (Cytochrome P450 2D6) [µM]	remaining at 10 min, 0.5 µM [5] [%]	IC50 (Cytochrome P450 3A4 [6]) [µM]	IC50 (Cytochrome P450 2C19) [µM]	Papp [7] [×10⁻⁶ cm/s]	IC50 (Cytochrome P450 2C8) [µM]	IC50 (Cytochrome P450 3A4 [8]) [µM]	remaining at 10 min, 0.5 µM [9] [%]	IC50 (Cytochrome P450 2C9) [µM]	IC50 (Cytochrome P450 1A2) [µM]	EC50 (Toll-like receptor 7 [10]) [µM]	Activity [11]	SMILES	IC50 [3] [µM]	IC50 at 72 h [4] [µM]
–	> 20	> 20	95	> 20	> 20	–	> 20	> 20	67	> 20	> 20	0.272	inactive	CCC[C@H](CCO)Nc1nc(N)nc2cnn(Cc3ncc(C4CCN(C5CCOCC5)CC4)cc3OC)c12	> 50	> 25
–	> 20	> 20	67	> 20	> 20	–	> 20	> 20	65	> 20	> 20	0.145	inactive	CCC[C@@H](CCO)Nc1nc(N)nc2cnn(Cc3ncc(C4CCN(CC#N)CC4)cc3OC)c12	30.2	> 25
